Assay results taken from article PMC8213057, “Targeting ALK2: An Open Science Approach to Developing Therapeutics for the Treatment of Diffuse Intrinsic Pontine Glioma” (Journal of Medicinal Chemistry, 2020).
Several values for one entry are separate records, joined by “and”; a condition that tells them apart may be missing. Equal entries are not always repeated.

Assays:
SNARK/NUAK2 = biological target: T1, SNARK/NUAK2 (Homo sapiens, UniProt Q9H093); details: 1 μM; Run 1, Run 2
T1 sequence (Q9H093 1-628): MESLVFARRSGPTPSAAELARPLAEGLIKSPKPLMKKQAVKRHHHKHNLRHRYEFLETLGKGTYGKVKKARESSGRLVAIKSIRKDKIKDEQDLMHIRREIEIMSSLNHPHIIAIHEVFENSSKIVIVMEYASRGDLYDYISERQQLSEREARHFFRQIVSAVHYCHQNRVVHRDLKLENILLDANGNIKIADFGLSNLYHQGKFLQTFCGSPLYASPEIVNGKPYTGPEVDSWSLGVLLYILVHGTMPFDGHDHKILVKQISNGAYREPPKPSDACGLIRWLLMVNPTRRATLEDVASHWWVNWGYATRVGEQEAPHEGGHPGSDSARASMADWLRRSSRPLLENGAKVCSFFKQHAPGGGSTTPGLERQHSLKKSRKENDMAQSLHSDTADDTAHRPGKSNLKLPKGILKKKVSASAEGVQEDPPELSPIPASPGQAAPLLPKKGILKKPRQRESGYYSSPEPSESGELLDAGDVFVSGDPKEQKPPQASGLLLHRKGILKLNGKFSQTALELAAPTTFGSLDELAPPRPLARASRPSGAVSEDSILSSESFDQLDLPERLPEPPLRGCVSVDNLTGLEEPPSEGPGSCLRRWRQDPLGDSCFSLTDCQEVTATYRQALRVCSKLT

EPHA2 = EPHA2 (Homo sapiens, UniProt P29317); details: 1 μM; Run 1, Run 2
DLK/MAP3K12 = biological target: T2, DLK/MAP3K12 (Homo sapiens, UniProt Q12852); details: 1 μM; Run 1, Run 2
T2 sequence (Q12852 1-859): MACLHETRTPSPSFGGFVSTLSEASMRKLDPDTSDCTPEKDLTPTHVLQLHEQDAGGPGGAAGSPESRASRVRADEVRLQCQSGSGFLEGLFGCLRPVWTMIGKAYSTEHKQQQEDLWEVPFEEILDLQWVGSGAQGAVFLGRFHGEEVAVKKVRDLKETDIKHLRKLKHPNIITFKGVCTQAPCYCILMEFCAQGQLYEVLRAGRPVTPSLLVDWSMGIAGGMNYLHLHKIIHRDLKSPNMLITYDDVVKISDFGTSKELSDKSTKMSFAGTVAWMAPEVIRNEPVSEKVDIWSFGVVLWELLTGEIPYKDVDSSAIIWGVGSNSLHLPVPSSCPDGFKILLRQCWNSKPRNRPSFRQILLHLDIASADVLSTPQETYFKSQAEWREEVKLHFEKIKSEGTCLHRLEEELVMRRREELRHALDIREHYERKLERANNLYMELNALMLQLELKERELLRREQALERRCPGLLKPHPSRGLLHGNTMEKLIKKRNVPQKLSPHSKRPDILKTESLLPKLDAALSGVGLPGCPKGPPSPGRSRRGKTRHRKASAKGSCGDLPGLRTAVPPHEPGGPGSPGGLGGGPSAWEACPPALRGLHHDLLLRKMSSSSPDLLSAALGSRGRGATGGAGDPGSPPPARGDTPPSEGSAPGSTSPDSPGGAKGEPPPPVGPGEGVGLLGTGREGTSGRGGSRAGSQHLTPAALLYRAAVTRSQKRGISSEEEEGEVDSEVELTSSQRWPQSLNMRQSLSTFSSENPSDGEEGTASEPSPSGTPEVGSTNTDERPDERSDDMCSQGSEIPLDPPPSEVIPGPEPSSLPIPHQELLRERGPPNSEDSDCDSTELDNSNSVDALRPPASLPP

DDR2 = biological target: T3, DDR2 (Homo sapiens, UniProt Q16832); test: biochemical; details: read-out: % enzyme activity, 1 μM; Run 1, Run 2
T3 sequence (Q16832 22-855): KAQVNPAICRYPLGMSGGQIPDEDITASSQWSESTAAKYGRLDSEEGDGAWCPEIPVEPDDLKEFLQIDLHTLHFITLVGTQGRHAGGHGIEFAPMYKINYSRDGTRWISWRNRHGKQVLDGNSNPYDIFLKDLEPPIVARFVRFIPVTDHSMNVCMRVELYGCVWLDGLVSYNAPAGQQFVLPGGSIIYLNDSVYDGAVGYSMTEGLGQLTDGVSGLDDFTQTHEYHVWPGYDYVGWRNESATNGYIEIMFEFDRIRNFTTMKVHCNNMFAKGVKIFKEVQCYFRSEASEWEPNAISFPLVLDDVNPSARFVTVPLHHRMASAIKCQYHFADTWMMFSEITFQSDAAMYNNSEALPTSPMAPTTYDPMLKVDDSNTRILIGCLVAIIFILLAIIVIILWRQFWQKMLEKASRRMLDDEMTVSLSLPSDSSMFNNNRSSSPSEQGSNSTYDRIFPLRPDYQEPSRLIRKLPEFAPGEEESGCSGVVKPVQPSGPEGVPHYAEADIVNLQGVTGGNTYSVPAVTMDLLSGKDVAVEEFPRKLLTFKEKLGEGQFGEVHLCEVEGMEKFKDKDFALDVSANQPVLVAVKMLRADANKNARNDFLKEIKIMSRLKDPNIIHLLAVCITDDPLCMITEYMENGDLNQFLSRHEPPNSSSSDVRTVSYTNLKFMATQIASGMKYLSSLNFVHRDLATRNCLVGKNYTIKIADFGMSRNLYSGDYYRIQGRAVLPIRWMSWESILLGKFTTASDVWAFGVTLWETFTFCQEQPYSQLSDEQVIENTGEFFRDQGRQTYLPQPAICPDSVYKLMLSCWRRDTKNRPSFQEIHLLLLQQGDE

Chain of EPHA2 (P29317 24-976): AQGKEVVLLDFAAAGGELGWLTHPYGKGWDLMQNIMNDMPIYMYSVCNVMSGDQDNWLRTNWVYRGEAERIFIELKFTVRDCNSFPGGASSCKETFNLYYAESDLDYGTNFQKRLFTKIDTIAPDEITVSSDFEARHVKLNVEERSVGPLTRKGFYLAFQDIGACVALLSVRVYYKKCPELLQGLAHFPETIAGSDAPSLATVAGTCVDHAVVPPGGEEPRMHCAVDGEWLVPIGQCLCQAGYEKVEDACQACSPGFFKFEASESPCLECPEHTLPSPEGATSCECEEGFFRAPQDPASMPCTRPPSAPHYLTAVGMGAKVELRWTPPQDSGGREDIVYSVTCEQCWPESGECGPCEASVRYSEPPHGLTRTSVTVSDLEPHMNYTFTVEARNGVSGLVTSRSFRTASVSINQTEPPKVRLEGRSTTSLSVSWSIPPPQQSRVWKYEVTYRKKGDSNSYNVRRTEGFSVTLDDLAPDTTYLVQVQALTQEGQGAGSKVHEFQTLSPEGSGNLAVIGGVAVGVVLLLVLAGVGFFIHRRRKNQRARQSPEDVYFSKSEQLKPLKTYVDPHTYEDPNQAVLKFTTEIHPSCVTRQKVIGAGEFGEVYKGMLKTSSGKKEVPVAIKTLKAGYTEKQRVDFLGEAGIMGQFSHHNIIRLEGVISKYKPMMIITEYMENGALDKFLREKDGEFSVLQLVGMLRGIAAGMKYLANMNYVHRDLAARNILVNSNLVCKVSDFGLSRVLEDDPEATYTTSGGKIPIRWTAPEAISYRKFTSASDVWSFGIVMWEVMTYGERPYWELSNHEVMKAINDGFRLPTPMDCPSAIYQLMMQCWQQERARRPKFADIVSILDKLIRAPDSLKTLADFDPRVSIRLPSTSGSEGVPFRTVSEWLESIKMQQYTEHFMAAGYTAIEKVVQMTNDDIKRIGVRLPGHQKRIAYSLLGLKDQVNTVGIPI

Structure (SMILES) | % enzyme activity (SNARK/NUAK2) | % enzyme activity at 1 μM (DYRK1/DYRK1A) | % enzyme activity (EPHA2) | % enzyme activity (DLK/MAP3K12) | remaining activity at 1 µM (DDR2)
COc1cc(-c2cncc(-c3ccc(N4C[C@@H](C)N(C)[C@@H](C)C4)cc3)c2C)cc(F)c1C(N)=O [Compound 26c, 2-Fluoro-6-methoxy-4-(4-methyl-5-(4-((3R,5S)-3,4,5-trimethylpiperazin-1-yl)phenyl)pyridin-3-yl)benzamide] | 94.38% | 62.4% and 60% | 104.56% | 97.93% | 92.7%
COc1cc(-c2cncc(-c3ccc(N4CCN(C)CC4)cc3)c2C)cc(F)c1C(N)=O [Compound 26a, 2-Fluoro-6-methoxy-4-(4-methyl-5-(4-(4-methylpiperazin-1-yl)phenyl)pyridin-3-yl)benzamide] | 93.71% | 43.3% and 43.1% | 97.38% | 91.76% | 100%
